Test results: patent publication US6830760B2, “Glyburide composition” (Bristol-Myers Squibb Company, priority 2000, dated 2004)

Assay: Glyburide particle size by laser light scattering / laser diffraction
Format: physicochemical
Settings: drug substance, laser diffraction particle size analysis
Protocol: Data from studies with metformin hydrochloride/glyburide tablets formulated with glyburide of different particle size characteristics allowed for the development of a correlation between glyburide particle size and the in vivo performance. The desired particle size distribution may be obtained by sieving or, preferably, air jet milling, and was measured by a laser light scattering method. The particle size measurement method of laser light scattering uses drug substance dispersed in liquid paraffin for introduction into the measurement cell. The apparatus produces a volume based, cumulative size distribution. […] The mill was operated with a Venturi nitrogen pressure of approximately 1.5 atmospheres and a micronization chamber pressure of 4 atmospheres. Size reduction was not allowed to proceed to the extent normally employed to make glyburide that would be described as micronized. The mill was turned off and the drug substance was discharged from it. A sample of the size-reduced glyburide was evaluated by a laser diffraction particle size analysis method.

| D25% | D50% | D75% | SMILES |
| --- | --- | --- | --- |
| 5 microns | 9 microns | 21 microns | COc1ccc(Cl)cc1C(=O)NCCc1ccc(S(=O)(=O)NC(=O)NC2CCCCC2)cc1 [Example 1, 5-chloro-N-[2-[4-[[[(cyclohexylamino)-carbonyl]amino]sulfonyl]phenyl]ethyl]-2-methoxybenzamide] |
| 2.8 microns | 4.5 microns | 7.3 microns | COc1ccc(Cl)cc1C(=O)NCCc1ccc(S(=O)(=O)NC(=O)NC2CCCCC2)cc1 [commercially available micronized sample] |
